In US6297230A, “Cyanoaziridines for treating cancer” (priority 2000, dated 2001):

Tested on: Human 8226 myeloma tumors
Assay: Antitumor efficacy in SCID mice bearing human 8226 myeloma tumors (40-fold doxorubicin resistant)
Format: in vivo, human tumor xenograft in SCID mice
Source text: Testing for Antitumor Efficacy in Mice with Severe Combined Immunodeficiency Disease (SCID)
The SCID mouse represents an autosomal recessive mutation in an inbred strain of […] mice which renders the animals profoundly immunodeficient and able to accept tissue xenografts from rats, humans or other strains of mice. (Ware, et al., J Immunol Methods 85:353-361, 1985.) The immunologic defect results from an inability to carry out normal immunoglobulin and T-cell receptor recombination reactions during the development of T- and B-lymphocytes. This renders mice with very low levels of T- and B-cells, and low levels of antibody production which allows foreign (allogeneic or xenogeneic) tissue grafts to grow in vivo. […] (Phillips, et al., Curr Top Microbiol Immunol 152:259-263, 1989.) Compared to athymic nude mice, SCID mice accept more tumor tissue types and breed more efficiently. (Phillips, et al., Curr Top Microbiol Immunol 152:259-263, 1989.) The SCID mice are also more sensitive to ionizing radiation (Budach, et al., Cancer Res 52(22):6292-6296, 1992) due to a defect in DNA double strand break repair. (Chang, et al., Cancer Res 53:1244-1248, 1993.) Because some SCID mice can spontaneously revert to a more normal phenotype, serum immunoglobulin […] (IgG) levels are routinely measured and if elevated (leaky phenotype syndrome), the mouse is excluded from further study.
The SCID mouse colony is maintained in a barrier facility with specially filtered air, autoclaved (sterilized) food and water and protective handling precautions (gloves, mask, gown) to prevent inadvertent infection. For tumor studies, human tumor cells are grown in vitro, harvested, counted and injected subcutaneously into the front flank area. Tumor cell innocula range from 10^6 -2×10^7 cells/mouse. Palpable tumors begin to develop after 1-3 weeks and sizes are determined by caliper measure of the widest perpendicular diameters. These dimensions are converted to mass using the formula:
wherein W=the shorter of the two dimensions and L=the longer diameter value.
Tumor growth rates are plotted as mass (g) per days after inoculation.
Drug treatments are given by intravenous (IV) or intraperitoneal (IP) injection beginning 24 hours after tumor implantation (day 1). […] Drug therapy began 1 day later with AMP-404 dissolved in a water-miscible co-solvent system containing (per mL): benzyl alcohol 30 mg; polysorbate 80 mw, 80 mg; polyethylene glycol 300 mw, 650 mg; and q.s. to 1.0 mL in absolute ethanol. The daily dose was either 50 mg/kg or 100 mg/kg. […]

N#CC1CN1C(=O)Nc1ccccc1 (stereo not shown) [AMP 404, 2-Cyanoaziridine-1-(N-phenyl)carboxamide]
Antitumor effect (50 mg/kg daily): not active | Mean (SD) tumor volume (50 mg/kg daily, Week 3): 104.2 (78.6) mm^3 | Mean (SD) tumor volume (50 mg/kg daily, Week 4): 247.9 (225.9) mm^3 | Mean (SD) tumor volume (50 mg/kg daily, Week 5): 574.2 (296.2) mm^3 | Mean (SD) tumor volume (50 mg/kg daily, Week 6): 1,020 (396.2) mm^3 | Mean (SD) tumor volume (50 mg/kg daily, Week 7): 1,858.4 (941.4) mm^3 | Mean reduction in tumor volume (100 mg/kg): 50% | Mean (SD) tumor volume (100 mg/kg daily, Week 3, P-value .005 vs control): 32.9 (17.9) mm^3 | Mean (SD) tumor volume (100 mg/kg daily, Week 4, P-value .068 vs control): 104.9 (81.8) mm^3 | Mean (SD) tumor volume (100 mg/kg daily, Week 5, P-value .229 vs control): 312.5 (195.5) mm^3 | Mean (SD) tumor volume (100 mg/kg daily, Week 6, P-value .100 vs control): 357.3 (314.5) mm^3 | Mean (SD) tumor volume (100 mg/kg daily, Week 7, P-value 0.19 vs control): 824.5 (793.7) mm^3 | Tumor size at end of 6 week experiment (100 mg/kg, control approximately 1,000 mm^3): approximately 300 mm^3 | Onset of developing palpable tumors (after inoculation): 3 weeks | Tumor take rate (% of inoculated mice developing palpable tumors) (all 3 groups): 100% | Antitumor activity in vivo (multidrug-resistant human myeloma, SCID mice): active against multidrug-resistant human myeloma cells in vivo
